Results published in US20250243180A1, “TARGETED PROTEIN DEGRADATION” (Monte Rosa Therapeutics AG, priority 2023, published 2025).

What was measured:
Caspase-1 activity = Caspase-1 activity in human monocyte-derived macrophages, LPS/MSU stimulation; assay type: cell-based
Method: (§1) Human monocytes were enriched and isolated from a buffy coat of whole blood with a RosetteSep™ Human Monocyte Enrichment Cocktail (Cat.No. 15068, StemCell) and Ficoll-Plaque PLUS (Cat.No. H8889, Sigma). Monocytes were differentiated into macrophages by treatment with 100 ng/mL M-CSF for 6 days at 37° C., 5% CO2. Differentiated macrophages were seeded overnight (50,000 cells/well) in 100 μL of medium in a 96-well white-bottom plate at 37° C., 5% CO2. Cells were treated with a concentration range of MGD or the NLRP3 inhibitor selnoflast (Cat.No. HY-132831, MedChemExpress) for 24 h prior to stimulation with monosodium urate crystals (MSU). Macrophages were stimulated with […] lipopolysaccharide (LPS) and 0.2 mg/mL MSU for 6 h. Medium of stimulated macrophages were collected and assayed for caspase-1 activity directly (Promega G9951) as well as IL-1β (Promega W6010), according to manufacturer's instructions.
(§2) (a, b) Human monocyte-derived macrophages pre-treated with a dose-response of Compound 14 or selnoflast (NLRP3 inhibitor) for 24 h and stimulated with a combination of lipopolysaccharide (LPS) and monosodium urate crystals (MSU) for 6 h prior to supernatant collection. Monocytes were isolated from eight human donors. Caspase-1 (a) and IL-1β (b) in the supernatant are measured and data are expressed as percentage relative to mean values of DMSO conditions for each donor (technical triplicates). Means of eight donors are plotted and analyzed using a four-parameter logistic regression model.

IL-1β [1] = experiment: IL-1β in human monocyte-derived macrophages, LPS/MSU stimulation; assay type: cell-based; settings: 24 h pre-treatment, LPS + MSU 6 h, eight donors
Method: as §1, §2

[2] = Plasma concentration in NHP, multiple-dose study 5 mg/kg oral; assay type: in vivo, cynomolgus monkeys; settings: both sexes, cynomolgus monkey
Method: Non-naïve male and female non-human primate (NHP) cynomolgus monkeys were orally administered with 5 consecutive daily doses of Compound 14 at 5 mg/kg, n=2 per dose group, 1 male and 1 female. Compound formulation was prepared on the day of administration in 0.5% methyl cellulose (4000 cps) in water and animals were fasted overnight. Plasma collected post dose were analyzed using a non GLP LC/MS/MS bioanalytical method to evaluate the compound concentration. Whole blood collected post dose were processed to PBMC and were analyzed using western blot method. Plasma pharmacokinetics and PMBC pharmacodynamics were assessed longitudinally throughout dosing and following dosing cessation.
In Table 7, plasma was isolated 6 h after final dose (dosed once or over five consecutive days), n=2. Plasma collected post dose were analyzed using a non GLP LC/MS/MS bioanalytical method to evaluate the compound concentration.

IL-1β [3] = experiment: Ex vivo whole blood stimulation (LPS/nigericin) IL-1β ELISA after dosing of NHP; assay type: in vivo, cynomolgus monkeys; settings: oral 5 mg/kg for 5 days
Method: Within 0.5 h of blood collection from animals that received vehicle or Compound 14 at 5 mg/kg, whole blood was aliquoted into two 0.25 mL aliquots. One aliquot was used as baseline, and the other as the ex vivo stimulated condition. For stimulation, whole blood was incubated with 100 ng/mL Lipopolysaccharide from Escherichia coli 0111:B4 (LPS-EB) for 3 h, followed by 10 μM nigericin for 2 h. Plasma was then isolated and concentrations of IL-1β in plasma isolated from ex vivo whole blood stimulation were measured using the IL-1β ELISA R&D Systems kit (Cat. #DY1318), with 50 μL per sample diluted with 50 μL reagent diluent/well. After reading absorbance on plate reader, standard curve and sample IL-1β levels were analyzed using 4PL method. […]
In Table 9, suppression of ex vivo inflammasome activation following degradation of NEK7 in NHP is reported. Whole blood was isolated at the indicated time points from NHP dosed orally 5 mg/kg of Compound 14 over 5 days (day 1 through 5), n=2. Days 10 and 15 correspond to recovery period, 5 or 10 days after drug administration, respectively. Whole blood was stimulated ex vivo with 100 ng/mL LPS for 3 h and 10 μM nigericin for 2 h. Plasma was isolated and IL-1β was measured by ELISA. […]

NEK7 = NEK7 degradation in the brain of NHP (JESS); assay type: in vivo; settings: oral 30 mg/kg for 7 days; for Average percent NEK7/β-actin in brain, relative to vehicle: 24 h after final dose
Method: Naïve NHP were orally administered with 7 consecutive daily dose of Compound 14 at 30 mg/kg, n=4 per dose group, 2 male and 2 female. Compound formulation was prepared on the day of administration in 0.5% methyl cellulose (4000 cps) in water and animals were fed twice a day; water was available ad libitum. Plasma collected posted dose on Day 1 and Day 7 were analyzed using a non GLP LC/MS/MS bioanalytical method to evaluate the compound concentration. Brain samples were harvested 24 h after final dose. Lysates for different brain regions (hippocampus, frontal cortex, and cerebellum) were prepared in M-PER lysis buffer and diluted at total protein concentration of 0.4 mg/mL in 0.1× sample buffer (12-230 kDa detection module; Protein Simple). The anti-NEK7 rabbit mAb (Abcam #AB133514) was used at 1:100 and anti-β-actin rabbit mAb (CST #5125) was used at 1:500. Samples were probed for NEK7 and β-actin protein levels by JESS, and quantified relative to vehicle control.
In Table 11, NEK7 protein degradation in brains of NHP following oral dosing of Compound 14 is reported. NHP received daily oral administration of 30 mg/kg of Compound 14 or vehicle for 7 days. For Compound 14 group, n=4 (two male and two female); for vehicle, n=2; samples taken 24 h post-final dose. Brains were harvested 24 h after final dose, sectioned by region (hippocampus, frontal cortex, cerebellum), and analyzed for NEK7 and beta-actin protein levels by JESS. The average percent of NEK7 was quantified by brain region and normalized to β-actin.

**Q.** What does the source list for `Cc1cnc(C(C)(C)C(=O)NCc2cc(Cl)c(C3CCC(=O)NC3=O)c(Cl)c2)nc1` (centres unmarked) [Compound 14, N-(3,5-dichloro-4-(2,6-dioxopiperidin-3-yl)benzyl)-2-methyl-2-(5-methylpyrimidin-2-yl)-propanamide]?
**A.** Caspase-1 activity Imax (Caspase-1 activity; 24 h pre-treatment, LPS + MSU 6 h, eight donors): 81%; IC50 (Caspase-1 activity; Homo sapiens, Macrophage, 24 h pre-treatment, LPS + MSU 6 h, eight donors): 1.6 nM; inhibition of NLRP3-driven activation of human macrophages (Caspase-1 activity; LPS/MSU stimulation): dose-dependent inhibition; IL-1β Imax (IL-1β [1]): 70%; IC50 (IL-1β [1]; Homo sapiens, Macrophage): 1.1 nM; concentration at 6 h ([2]; Day 1, 6 h post final dose): 5.4 ng/mL; concentration at 6 h ([2]; Day 5, 6 h post final dose): 7.5 ng/mL; Percent IL-1β relative to predose (IL-1β [3]; Day 1, 6 h): 1%; Percent IL-1β relative to predose (IL-1β [3]; Day 1, 24 h): 45%; Percent IL-1β relative to predose (IL-1β [3]; Day 5, 6 h): 0%; Percent IL-1β relative to predose (IL-1β [3]; Day 5, 24 h): 78%; Percent IL-1β relative to predose (IL-1β [3]; Day 10, 24 h (recovery)): 91.5%; Percent IL-1β relative to predose (IL-1β [3]; Day 15, 24 h (recovery)): 141%; degradation of NEK7 across three different brain regions (NEK7): around 80%; Average percent NEK7/β-actin in brain, relative to vehicle (NEK7; Cerebellum): 18.2%; Average percent NEK7/β-actin in brain, relative to vehicle (NEK7; Frontal Cortex): 20.3%; Average percent NEK7/β-actin in brain, relative to vehicle (NEK7; Hippocampus): 21.3%
